# According to patent publication US4711885A, “N-(N'-phenylpiperazine)-alkyl triazole compounds having anxiolytic and analgesic properties” (Adir et Compagnie, priority 1985, dated 1987):
# Columns and labels:
# Type in all cases: in vivo
# mice [1] = experiment: hot plate test according to Woolfe and MacDonald (analgesic activity, licking time); details: Mus musculus, ip
# Source text: (§1) The analgesic activity of the compounds of the present invention was studied by means of the tail-flick test according to D'Amour F. E. and Smith D. L., Journal of pharmacology and experimental therapeutics, 72, 74-79 (1941), the hot plate test according to Woolfe G. and MacDonald A. D., Journal of pharmacology and experimental therapeutics, 80, 300-307 (1944) and the phenylbenzoquinone test according to Siegmund E., Cadmus R. and Lu G, Proc. Soc. […]. Biol. Med. 95, 729-731 (1957).
# mice [2] = experiment: phenylbenzoquinone test according to Siegmund (analgesic activity, contractions of the abdomen); details: for ED50: Mus musculus, po, mice; for analgesic activity in the Siegmund test: in words
# Source text: as §1
# mice [3] = experiment: tail-flick test according to D'Amour and Smith (analgesic activity, reaction time); details: for ED50: Mus musculus, ip, mice
# Source text: The analgesic activity of the compounds of the present invention was studied by means of the tail-flick test according to D'Amour F. E. and Smith D. L., Journal of pharmacology and experimental therapeutics, 72, 74-79 (1941), the hot plate test according to Woolfe G. and MacDonald A. D., Journal of pharmacology and experimental therapeutics, 80, 300-307 (1944) and the phenylbenzoquinone test according to Siegmund E., Cadmus R. and Lu G, Proc. Soc. Exptle. Biol. Med. 95, 729-731 (1957).
# By way of example, the following table lists the results of the analgesic effects observed in mice for several representative products of the invention:
# Note: The mean effective dose (ED50) was calculated:
# in the tailflick test from the percentage variations in the reaction time
# (in seconds) by comparison with the control batch.
# mice [4] = experiment: four plates test according to Aron et al. (anxiolytic activity, number of shocks received); details: for % number of shocks received: mice, N = 10; for anxiolytic activity in the 4 plates test: in words
# Source text: (§2) The anxiolytic activity was studied, for its part, by means of the four plates test according to Aron C., Simon P., Larousse C. and Boissier J. R., Neuropharmacology, 10, 459-469, (1971), the conflict test according to Vogel J. R., Beer B., Clody D. E., Physchopharmacol.
# rats = experiment: Mac Millan punishment test, punishment operating conditioning (anxiolytic activity, number of punished responses); details: for percentage variation in the number of punished responses: rats, N ≥ 9; for anxiolytic activity in the conflict test according to MacMillan: in words
# Source text: as §2, with “Physchopharmacol. 21, 1-7, (1971) and the punishment test according to Mac Millan D. E., J. Exp. Anal. Behav, 19, 133-145 (1973).” for “Physchopharmacol.”
# PUNISHMENT OPERATING CONDITIONING (RATS)
# PERCENTAGE VARIATION IN THE NUMBER
# OF PUNISHED RESPONSES (N ≥ 9)
# S = Significant modification
Compound,ED50 (mice [1]),ED50 (mice [2]),ED50 (mice [3]),% number of shocks received (mice [4]; 2.5 mg/kg i.p.),% number of shocks received (mice [4]; 5 mg/kg i.p.),% number of shocks received (mice [4]; 10 mg/kg i.p.),% number of shocks received (mice [4]; 25 mg/kg i.p.),anxiolytic activity in the 4 plates test (mice [4]),"activity in the tail-flick test (mice [3]; 50 mg/kg i.p., in words)",percentage variation in the number of punished responses (rats; 2.5 mg/kg i.p.),percentage variation in the number of punished responses (rats; 5 mg/kg i.p.),percentage variation in the number of punished responses (rats; 10 mg/kg i.p.),percentage variation in the number of punished responses (rats; 20 mg/kg i.p.),anxiolytic activity in the conflict test according to MacMillan (rats),analgesic activity in the Siegmund test (mice [2])
"FC(F)(F)c1cccc(N2CCN(CCCc3nnc4n3C[C@H]3CCCC[C@H]3C4)CC2)c1 (relative stereo) [Example 3, Cis-10{γ-N-[N'(metatrifluoromethylphenyl)piperazine]n-propyl}-3,3a,4,5,6,7,7a,8-octahydrotriazolo[4,3-b]isoquinoline]",19.8 mg/kg,16 mg/kg,> 50 mg/kg,+38%,+44%,+48%,18%,very significant anxiolytic activity,,,,,,,
Clc1cccc(N2CCN(CCc3nnc4n3[C@H]3CCCC[C@@H]3CC4)CC2)c1 (relative stereo) [Example 12],25.3 mg/kg,25.7 mg/kg,30.7 mg/kg,+38%,+15%,+20%,+2%,very significant anxiolytic activity,active,-33.5%,-24%,-51.3%,-75%,,
FC(F)(F)c1cccc(N2CCN(CCc3nnc4n3C[C@H]3CCCC[C@H]3C4)CC2)c1 (relative stereo) [Example 16],24.3 mg/kg,17 mg/kg,> 50 mg/kg,-12%,+2%,+32%,+5%,very significant anxiolytic activity,,+5.4%,+42.2%,+125.9%,-60.7%,very significant anxiolytic activity,
Clc1cccc(N2CCN(CCCc3nnc4n3C[C@H]3CCCC[C@H]3C4)CC2)c1 (relative stereo) [Example 40],53.9 mg/kg,7.5 mg/kg,> 50 mg/kg,,,,,,,,,,,,very significant analgesic activiy
Clc1cccc(N2CCN(CCCc3nnc4n3[C@H]3CCCC[C@H]3CC4)CC2)c1 (relative stereo) [Example 42],,11.4 mg/kg,> 50 mg/kg,,,,,,,,,,,,
"Clc1cccc(N2CCN(CCc3nnc4n3CC3CCCCC43)CC2)c1 (stereo not drawn) [Example 2, 9-{β-N'-[N-(metachlorophenyl)piperazine]ethyl}-[7H]-2b,3,4,5,6,6a-hexahydrotriazolo[3,4-a]cyclohexa(c)pyrrole]",> 50 mg/kg,8.7 mg/kg,> 50 mg/kg,,,,,,,,,,,,very significant analgesic activiy
FC(F)(F)c1cccc(N2CCN(CCc3nnc4n3CC3CCCC43)CC2)c1 (centres unmarked) [Example 17a],21.3 mg/kg,5.82 mg/kg,> 50 mg/kg,+18%,+26%,+35%,+61%,very significant anxiolytic activity,,+47.8%,+33.6%,+42.6%,-70.3%,very significant anxiolytic activity,
FC(F)(F)c1cccc(N2CCN(CCc3nnc4n3CC3CCCC43)CC2)c1 (centres unmarked) [Example 17b],,,,+15%,+34%,+53%,+27%,very significant anxiolytic activity,,,,,,,
FC(F)(F)c1cccc(N2CCN(CCc3nnc4n3CC3CCCCC43)CC2)c1 (centres unmarked) [Example 36],25 to 50 mg/kg,4.3 mg/kg,> 50 mg/kg,-12%,-4%,-4%,+39%,very significant anxiolytic activity,,,,,,,very significant analgesic activiy
